This note sets out measurements from patent US11786534B2 (TAIHO PHARMACEUTICAL CO., LTD., priority 2019, dated 2023).

In general, IC50 refers to the point on the concentration scale where inhibition reaches its midpoint. High values mean lower potency, low ones higher potency.

Assay [1] deals with Ba/F3-EGFR (d746-750/T790M/C797S) (Homo sapiens, UniProt P00533, DEL746-750/T790M/C797S, cells depend on it). Description: Growth inhibition of cell line expressing EGFR (d746-750/T790M/C797S). The format is cell-based, mouse. The conditions noted are these: Test Example 4, Table 13; same procedures as Test Example 2; read-out: BaF3_EGFR (d746-750/T790M/C797S) IC50 value. An excerpt:
(§1) Test for inhibitory activity against the growth of cell lines expressing wild-type and mutated EGFRs (in vitro)
(§2) (1) Mouse cell line Ba/F3-EGFR (d746-750/T790M/C797S) transfected with and stably expressing EGFR (d746-750/T790M/C797S), mouse cell Ba/F3-EGFR (L858R/T790M/C797S) transfected with and stably expressing EGFR (L858R/T790M/C797S), and mouse cell line Ba/F3-EGFR (WT) transfected with and stably expressing wild-type EGFR were each suspended in RPMI-1640 cell culture medium (RPMI-1640, 10% FBS, 100 unit/ml penicillin, 0.1 mg/ml streptomycin). In the case of the mouse cell line Ba/F3-EGFR (WT), RPMI-1640 cell culture medium containing EGF at a final concentration of 50 ng/ml was used to suspend this cell line. It should be noted that the mouse cell line Ba/F3-EGFR (d746-750/T790M/C797S) transfected with and stably expressing EGFR (d746-750/T790M/C797S), the mouse cell line Ba/F3-EGFR (L858R/T790M/C797S) transfected with and stably expressing EGFR (L858R/T790M/C797S) and the mouse cell line Ba/F3-EGFR (WT) transfected with and stably expressing wild-type EGFR were prepared by using nucleotide sequences encoding the proteins of SEQ ID NOs: 1 and 2 in accordance with Test Example 1 in WO2018/079310, These cell suspensions were seeded in wells of 96-well flat -bottomed plates. The compounds of the present invention were dissolved in DMSO, and serial dilutions of these test compounds were prepared with DMSO (1000-fold of the final concentration). Each test compound solution in DMSO or DMSO alone was diluted with RPMI-1640 cell culture medium for each cell line, and this dilution was added to wells of the cell culture plate such that the final concentration of DMSO was 0.1%, followed by culture at 37° C. for 3 days in a 5% carbon dioxide gas-containing incubator. Before and after addition of each test compound solution in DMSO, the number of cells was counted using the CellTiter-Glo® system (Promega) on the basis of the protocol recommended by Promega.
(§3) In each cell line, the rate of cell growth inhibition was calculated according to the equation shown below in wells to which each test compound was added at different concentrations. Moreover, the inhibition rate at each concentration was plotted for each test compound, and the concentration of each test compound required to give 50% cell survival rate, i.e., IC50 (nM) was determined by curve fitting software XLfit (IDBS).
(§4) Cell survival rate (%)=T/C×100
(§5) T: emission intensity in a well cultured for 3 days after addition of a test compound solution
(§6) C: emission intensity in a well cultured for 3 days after addition of DMSO
(§7) In accordance with the same procedures as shown in Test Example 2, the compounds of the present invention were tested for their inhibitory activity against the growth of the cell hoes expressing wild-type and mutated EGFRs.

In assay [2] the target is Ba/F3-EGFR (L858R/T790M/C797S) (Homo sapiens, UniProt P00533, T790M/C797S/L858R, cells depend on it). Description: Growth inhibition of cell line expressing EGFR (L858R/T790M/C797S). Type of assay: cell-based, mouse. The note with it: Test Example 4, Table 13; same procedures as Test Example 2; read-out: BaF3_EGFR (L858R/T790M/C797S) IC50 value.
Description: as §1, §2, §3, §4, §5, §6, §7

The target of a further assay is Ba/F3-EGFR (WT) (Homo sapiens, UniProt P00533). Description: Growth inhibition of cell line expressing wild-type EGFR. Type of assay: cell-based, mouse. The note with it: Test Example 4, Table 13; same procedures as Test Example 2; read-out: BaF3_EGFR (WT) IC50 value.
Description: as §1, §2, §3, §4, §5, §6, §7

The target in assay [3] is T1, human EGFR (d746-750/T790M/C797S) (Homo sapiens, UniProt P00533, C797S/DEL746-750/T790M).
T1 construct: made in house; host or cells: Sf9 insect cells, baculovirus
Description: Inhibitory activity against EGFR (d746-750/T790M/C797S) kinase. The conditions noted are these: Test Example 1, Table 2; ATP 6 μM, 25° C., 120 minutes. The format is biochemical. Summed up: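 GST-fused cytoplasmic domain of human EGFR d746-750/T790M/C797S (Sf9-expressed) was incubated with 250 nM biotinylated peptide, 6 μM ATP, 10 mM MgCl2 and 10 mM MnCl2 (2.5% DMSO) for 120 min at 25 °C. After an EDTA stop, phosphotyrosine was detected by Eu-PT66/SureLight APC-SA TR-FRET (665/620 nm, excitation 337 nm). Background wells received EDTA before enzyme.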

Assay [4] concerns the target T2, human EGFR (L858R/T790M/C797S) (Homo sapiens, UniProt P00533, C797S/L858R/T790M).
T2 construct: made in house; host or cells: Sf9 insect cells, baculovirus
Description: Inhibitory activity against EGFR (L858R/T790M/C797S) kinase. Type of assay: biochemical. The conditions noted are these: Test Example 1, Table 3; ATP 0.5 μM. The method in brief: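 GST-tagged cytoplasmic domain of human EGFR L858R/T790M/C797S, expressed in Sf9 insect cells via baculovirus and glutathione-purified. Kinase reaction run at 0.5 μM ATP final; IC50 (nM) determined per compound.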

The target in assay [5] is T3, human EGFR (d746-750/C797S) (Homo sapiens, UniProt P00533, C797S/DEL746-750).
T3 construct: purchased SignalChem
Description: Inhibitory activity against EGFR (d746-750/C797S) kinase. The format is biochemical. The note with it: Test Example 1, Table 4; ATP 14 μM, 60 minutes. Summed up:
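Recombinant human EGFR d746-750/C797S in 13.5 mM Tris pH 7.5 with 2 mM DTT and 0.009% Tween-20. Reaction ran 60 min with 14 μM ATP, 20 mM MgCl2 and 12.5 mM MnCl2, stopped by 40 mM EDTA. IC50 in nM.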

For the next assay, the target named is T4, human EGFR (L858R/C797S) (Homo sapiens, UniProt P00533, C797S/L858R).
T4 construct: purchased SignalChem
Description: Inhibitory activity against EGFR (L858R/C797S) kinase. The format is biochemical. The note with it: Test Example 1, Table 5; ATP 4 μM, 90 minutes. Summed up:
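Purified recombinant human EGFR (C797S/L858R) kinase, final ATP 4 μM, 90-minute kinase reaction, otherwise per the EGFR (d746-750/C797S) protocol. IC50 (nM) determined from inhibition data.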

In the next assay the target is T5, human EGFR (WT) (Homo sapiens, UniProt P00533).
T5 construct: purchased Carna Biosciences Inc., Japan
Description: Inhibitory activity against EGFR (WT) kinase. The format is biochemical. The conditions noted are these: Test Example 1, Table 6; ATP 1.5 μM. Summed up:
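Purified recombinant human wild-type EGFR kinase, with ATP at 1.5 μM final. Compound inhibition of kinase activity read out and fitted to give IC50 (nM).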

Bounds are passed on as bounds.

As for `C#Cc1c(-c2cnc3ccccc3c2)c2c(N)ncnc2n1C12CCC(NC(=O)c3cnco3)(CC1)C2` [Example 47], the values for the GI50 (in assay [1]; in assay [2]; on Ba/F3-EGFR (WT)) were 33 nM, 382 nM and 2060 nM, respectively.
On to “N-4-(4-Amino-6-ethynyl-5-(quinolin-3-yl)-7H-pyrrolo[2,3-d]pyrimidin-7-yl)bicyclo -[2.2.1]heptane-1-yl)oxazole-5-carboxamide [Example 47]”, for which the IC50 in assay [3] was less than 0.3 nM; in assay [4], 0.59 nM; in assay [5] it was 0.33 nM; at human EGFR (L858R/C797S), 0.36 nM; against human EGFR (WT), 0.41 nM.
